Like-named read-outs stand apart in the source and are kept apart here.
Biological target: T1, cloned human MC4R (Homo sapiens, UniProt P32245)
T1 construct: made in house; host or cells: Hi5 insect cells (baculovirus infection); membrane preparation
Test: Membrane binding assay: competitive inhibition of [125I]NDP-α-MSH binding
Settings: for inhibition at 10 µM: read-out: Displacement Rate (%) (at 10 μM); for IC50: read-out: MC4R IC50
Protocol: Hi5 cells are infected using the following protocol: Cells at a density of 1×10^6 cells/mL are spun down at 1000 rpm (Beckman GS-6KR centrifuge) for 10 minutes. Cells are resuspended in 10% of their original volume in a sterile 50 mL conical centrifuge tube wrapped with aluminum foil. Virus is added at a Multiplicity of Infection (MOI) of 3 and incubated for 1 hour at room temperature with gentle shaking. […] Cells are spun down in 50 mL conical centrifuge tubes at 1000 rpm for 10 minutes. Each of the resulting pellets are resuspended in 10 mL of cold (4° C.) membrane buffer (25 mM HEPES, pH 7.4, 140 mM NaCl, 1.2 mM MgCl2, 2.5 mM CaCl2, 10 μG/mL Aprotinin, 10 μG/mL Leupeptin) and Dounce homogenized using 10-12 strokes. […] The resulting pellet is resuspended in cold membrane buffer in a total of ¼ of the original volume by vortexing and aspiration using a syringe and 27 gauge needle. Protein content is determined (Bradford, Bio-Rad Protein Assay). Membranes are aliquoted in microcentrifuge tubes and quick frozen in liquid nitrogen. Store at −80° C. until use. The membrane binding buffer is composed of 25 mM HEPES, pH 7.4, 140 mM NaCl, 1.2 mM MgCl2, 2.5 mM CaCl2, 0.1% BSA. […] The mixture is filtered with Brandel Microplate 96 filter apparatus using 96-well GF/B filter presoaked in 1-% polyethyleneimine (Sigma). The filter is washed (4 times with a total of 1 mL per well) with cold wash buffer consisting of 20 mM HEPES, pH 7.4, 5 mM MgCl2. […] 100 μl of Wallac Optiphase Supermix scintillation fluid is added to each well. The top is sealed and the plates are shaken to insure that the filters are thoroughly soaked with fluid. […] Dose-response curves are fitted by […] analyses and IC50 values are calculated using ExcelFit.

[1] = at 10 μM, [125I]NDP-α-MSH displacement

T1 sequence (P32245 whole entry): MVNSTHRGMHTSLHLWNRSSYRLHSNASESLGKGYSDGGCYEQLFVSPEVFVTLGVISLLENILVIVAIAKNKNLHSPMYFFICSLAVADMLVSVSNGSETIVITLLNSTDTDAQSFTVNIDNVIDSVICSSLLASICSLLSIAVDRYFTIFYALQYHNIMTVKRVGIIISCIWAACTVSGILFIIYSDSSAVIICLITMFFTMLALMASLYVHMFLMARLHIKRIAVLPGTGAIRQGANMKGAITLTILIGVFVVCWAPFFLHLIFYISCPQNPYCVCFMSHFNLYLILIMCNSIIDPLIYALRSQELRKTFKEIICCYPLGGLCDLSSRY

Work on `N[C@@H](Cc1ccc(OCc2ccccc2)cc1)C(=O)N1CCCN(Cc2ccc(C(c3ccccc3)c3ccccc3)cc2)CC1` [Example 1] yielded an inhibition at 10 µM [1] of 91 to 100% and an IC50 of less than 1.5 µM.

`N[C@@H](Cc1ccc(OCc2ccccc2)cc1)C(=O)N1CCCN(Cc2ccccc2Sc2ccc(Cl)cc2)CC1` [Example 2] gave an inhibition at 10 µM [1] of 91 to 100% and an IC50 of 1.5 to 3 µM.

`CCn1c2ccccc2c2cc(CN3CCCN(C(=O)[C@@H](N)Cc4ccc(OCc5ccccc5)cc4)CC3)ccc21` [Example 3] was tested, and the inhibition at 10 µM [1] was 91 to 100% and the IC50 was less than 1.5 µM.

For `N[C@@H](Cc1ccc(OCc2ccccc2)cc1)C(=O)N1CCCN(Cc2cccc(Oc3cc(Cl)cc(Cl)c3)c2)CC1` [Example 4], the inhibition at 10 µM [1] was 91 to 100% and the IC50 was less than 1.5 µM.

`N[C@@H](Cc1ccc(OCc2ccccc2)cc1)C(=O)N1CCCN(Cc2ccc(-c3ccc(Cl)cc3)o2)CC1` [Example 6] gave an inhibition at 10 µM [1] of 91 to 100% and an IC50 of 1.5 to 3 µM.

For `N[C@@H](Cc1ccc(OCc2ccccc2)cc1)C(=O)N1CCCN(Cc2ccc(-c3ccccc3)cc2)CC1` [Example 8], the inhibition at 10 µM [1] was 91 to 100% and the IC50 was 1.5 to 3 µM.

`N[C@@H](Cc1ccc(OCc2ccccc2)cc1)C(=O)N1CCCN(Cc2cn(Cc3ccccc3)c3ccccc23)CC1` [Example 9] showed an inhibition at 10 µM [1] of 91 to 100% and an IC50 of less than 1.5 µM.

With `N[C@@H](Cc1ccc(OCc2ccccc2)cc1)C(=O)N1CCCN(Cc2ccc3c(c2)Cc2ccccc2-3)CC1` [Example 10] the inhibition at 10 µM [1] was 91 to 100% and the IC50 was 1.5 to 3 µM.

For `N[C@@H](Cc1ccc(OCc2ccccc2)cc1)C(=O)N1CCCN(Cc2ccc(/C=C/c3ccccc3)cc2)CC1` [Example 11], the inhibition at 10 µM [1] was 91 to 100% and the IC50 was less than 1.5 µM.

`N[C@@H](Cc1ccc(OCc2ccccc2)cc1)C(=O)N1CCCN(Cc2cc(OCc3ccccc3)cc(OCc3ccccc3)c2)CC1` [Example 12] was tested, and the inhibition at 10 µM [1] was 91 to 100% and the IC50 was less than 1.5 µM.

Work on `N[C@@H](Cc1ccc(OCc2ccccc2)cc1)C(=O)N1CCCN(Cc2ccc(OCc3ccccc3)cc2)CC1` [Example 13] yielded an inhibition at 10 µM [1] of 91 to 100% and an IC50 of 1.5 to 3 µM.

Work on `CCCCCCCCOc1ccc(CN2CCCN(C(=O)[C@@H](N)Cc3ccc(OCc4ccccc4)cc3)CC2)cc1` [Example 14] yielded an inhibition at 10 µM [1] of 91 to 100% and an IC50 of less than 1.5 µM.

With `COc1cc(CN2CCCN(C(=O)[C@@H](N)Cc3ccc(OCc4ccccc4)cc3)CC2)ccc1OCc1ccc([N+](=O)[O-])cc1` [Example 15] the inhibition at 10 µM [1] was 91 to 100% and the IC50 was 1.5 to 3 µM.

In the case of `N[C@@H](Cc1ccc(OCc2ccccc2)cc1)C(=O)N1CCCN(Cc2cccc(Oc3cccc(C(F)(F)F)c3)c2)CC1` [Example 16], the inhibition at 10 µM [1] is reported as 91 to 100% and the IC50 is reported as less than 1.5 µM.

Molecule `N[C@@H](Cc1ccc(OCc2ccccc2)cc1)C(=O)N1CCCN(Cc2ccc(Cl)c(Cl)c2)CC1` [Example 17] has an inhibition at 10 µM [1] of 91 to 100% and an IC50 of 1.5 to 3 µM.

In the case of `Cc1ccc(S(=O)(=O)n2cc(CN3CCCN(C(=O)[C@@H](N)Cc4ccc(OCc5ccccc5)cc4)CC3)c3ccccc32)cc1` [Example 18], the inhibition at 10 µM [1] is reported as 91 to 100% and the IC50 is reported as less than 1.5 µM.

With `N[C@@H](Cc1ccc(OCc2ccccc2)cc1)C(=O)N1CCCN(Cc2cccc(Oc3ccc(Cl)c(Cl)c3)c2)CC1` [Example 19] the inhibition at 10 µM [1] was 91 to 100% and the IC50 was less than 1.5 µM.

With `N[C@@H](Cc1ccc(OCc2ccccc2)cc1)C(=O)N1CCCN(Cc2c3ccccc3cc3ccccc23)CC1` [Example 20] the inhibition at 10 µM was 91 to 100% and the IC50 was greater than 3 µM.

Work on `N[C@@H](Cc1ccc(OCc2ccccc2)cc1)C(=O)N1CCCN(Cc2ccc(-c3cccc([N+](=O)[O-])c3)o2)CC1` [Example 21] yielded an inhibition at 10 µM [1] of 91 to 100% and an IC50 of 1.5 to 3 µM.

For `N[C@@H](Cc1ccc(OCc2ccccc2)cc1)C(=O)N1CCCN(Cc2ccccc2C(F)(F)F)CC1` [Example 22], the inhibition at 10 µM [1] was 91 to 100% and the IC50 was greater than 3 µM.

With `N[C@@H](Cc1ccc(OCc2ccccc2)cc1)C(=O)N1CCCN(CC(c2ccccc2)c2ccccc2)CC1` [Example 23] the inhibition at 10 µM [1] was 91 to 100% and the IC50 was greater than 3 µM.

`CCOc1ccc(CN2CCCN(C(=O)[C@@H](N)Cc3ccc(OCc4ccccc4)cc3)CC2)c(OCC)c1C` [Example 24] gave an inhibition at 10 µM [1] of 91 to 100% and an IC50 of less than 1.5 µM.

For `N[C@@H](Cc1ccc(OCc2ccccc2)cc1)C(=O)N1CCCN(Cc2ccc(C(F)(F)F)cc2)CC1` [Example 25], the inhibition at 10 µM [1] was 91 to 100% and the IC50 was less than 1.5 µM.

`CC(C)(C)c1cc(CN2CCCN(C(=O)[C@@H](N)Cc3ccc(OCc4ccccc4)cc3)CC2)cc(C(C)(C)C)c1O` [Example 26] showed an inhibition at 10 µM [1] of 71 to 90% and an IC50 of 1.5 to 3 µM.

`N[C@@H](Cc1ccc(OCc2ccccc2)cc1)C(=O)N1CCCN(Cc2ccc(OCc3ccc([N+](=O)[O-])cc3)cc2)CC1` [Example 27] showed an inhibition at 10 µM [1] of 71 to 90% and an IC50 of less than 1.5 µM.

For `N[C@@H](Cc1ccc(OCc2ccccc2)cc1)C(=O)N1CCCN(Cc2ccc(C(F)(F)F)cc2F)CC1` [Example 28], the inhibition at 10 µM [1] was 71 to 90% and the IC50 was greater than 3 µM.

For `COc1cc(CN2CCCN(C(=O)[C@@H](N)Cc3ccc(OCc4ccccc4)cc3)CC2)ccc1OCc1ccccc1` [Example 29], the inhibition at 10 µM [1] was 71 to 90% and the IC50 was 1.5 to 3 µM.

Work on `N[C@@H](Cc1ccc(OCc2ccccc2)cc1)C(=O)N1CCCN(C2CCc3ccccc3C2)CC1` (stereo partly shown) [Example 30] yielded an inhibition at 10 µM of 71 to 90% and an IC50 greater than 3 µM.

Molecule `COc1cc(OC)c(CN2CCCN(C(=O)[C@@H](N)Cc3ccc(OCc4ccccc4)cc3)CC2)cc1Br` [Example 31] has an inhibition at 10 µM [1] of 71 to 90% and an IC50 of 1.5 to 3 µM.

`CCCCCOc1ccc(CN2CCCN(C(=O)[C@@H](N)Cc3ccc(OCc4ccccc4)cc3)CC2)cc1` [Example 32] was tested, and the inhibition at 10 µM [1] was 71 to 90% and the IC50 was less than 1.5 µM.

With `N[C@@H](Cc1ccc(OCc2ccccc2)cc1)C(=O)N1CCCN(Cc2ccc(Oc3ccccc3)cc2)CC1` [Example 33] the inhibition at 10 µM [1] was 71 to 90% and the IC50 was 1.5 to 3 µM.

Molecule `N[C@@H](Cc1ccc(OCc2ccccc2)cc1)C(=O)N1CCCN(Cc2cc([N+](=O)[O-])ccc2Cl)CC1` [Example 34] has an inhibition at 10 µM of 71 to 90% and an IC50 greater than 3 µM.

`CCCCc1ccc(CN2CCCN(C(=O)[C@@H](N)Cc3ccc(OCc4ccccc4)cc3)CC2)cc1` [Example 35] gave an inhibition at 10 µM [1] of 71 to 90% and an IC50 of 1.5 to 3 µM.

In the case of `Cc1ccc(C)c(CN2CCCN(C(=O)[C@@H](N)Cc3ccc(OCc4ccccc4)cc3)CC2)c1` [Example 36], the inhibition at 10 µM [1] is reported as 71 to 90% and the IC50 is reported as greater than 3 µM.

Molecule `N[C@@H](Cc1ccc(OCc2ccccc2)cc1)C(=O)N1CCCN(Cc2ccnc3ccccc23)CC1` [Example 37] has an inhibition at 10 µM [1] of 71 to 90% and an IC50 greater than 3 µM.

Work on `CCc1ccc(CN2CCCN(C(=O)[C@@H](N)Cc3ccc(OCc4ccccc4)cc3)CC2)cc1` [Example 38] yielded an inhibition at 10 µM [1] of 71 to 90% and an IC50 greater than 3 µM.

`CC(C)(C)c1ccc(CN2CCCN(C(=O)[C@@H](N)Cc3ccc(OCc4ccccc4)cc3)CC2)cc1` [Example 39] was tested, and the inhibition at 10 µM [1] was 71 to 90% and the IC50 was 1.5 to 3 µM.

In the case of `CCOc1cccc(CN2CCCN(C(=O)[C@@H](N)Cc3ccc(OCc4ccccc4)cc3)CC2)c1O` [Example 40], the inhibition at 10 µM [1] is reported as 71 to 90% and the IC50 is reported as greater than 3 µM.

In the case of `N[C@@H](Cc1ccc(OCc2ccccc2)cc1)C(=O)N1CCCN(C2CCC(c3ccccc3)CC2)CC1` (stereo partly shown) [Example 41], the inhibition at 10 µM [1] is reported as 71 to 90% and the IC50 is reported as greater than 3 µM.

In the case of `N[C@@H](Cc1ccc(OCc2ccccc2)cc1)C(=O)N1CCCN(CCCc2ccccc2)CC1` [Example 42], the inhibition at 10 µM [1] is reported as 71 to 90% and the IC50 is reported as greater than 3 µM.

`COc1ccc2ccccc2c1CN1CCCN(C(=O)[C@@H](N)Cc2ccc(OCc3ccccc3)cc2)CC1` [Example 43] was tested, and the inhibition at 10 µM [1] was 71 to 90% and the IC50 was 1.5 to 3 µM.

Work on `CC(Cc1cccc(C(F)(F)F)c1)N1CCCN(C(=O)[C@@H](N)Cc2ccc(OCc3ccccc3)cc2)CC1` (stereo partly shown) [Example 44] yielded an inhibition at 10 µM [1] of 71 to 90% and an IC50 of 1.5 to 3 µM.

`CCc1ccc(CN2CCCN(C(=O)[C@@H](N)Cc3ccc(OCc4ccccc4)cc3)CC2)s1` [Example 45] showed an inhibition at 10 µM [1] of 35 to 70% and an IC50 greater than 3 µM.

Work on `CCCCCCCN1CCCN(C(=O)[C@@H](N)Cc2ccc(OCc3ccccc3)cc2)CC1` [Example 46] yielded an inhibition at 10 µM [1] of 35 to 70% and an IC50 greater than 3 µM.

In the case of `N[C@@H](Cc1ccc(OCc2ccccc2)cc1)C(=O)N1CCCN(Cc2cccc3ccccc23)CC1` [Example 47], the inhibition at 10 µM [1] is reported as 35 to 70% and the IC50 is reported as greater than 3 µM.

`Cc1ccsc1CN1CCCN(C(=O)[C@@H](N)Cc2ccc(OCc3ccccc3)cc2)CC1` [Example 48] showed an inhibition at 10 µM [1] of 35 to 70% and an IC50 greater than 3 µM.

`CC(COc1ccccc1)N1CCCN(C(=O)[C@@H](N)Cc2ccc(OCc3ccccc3)cc2)CC1` (stereo partly shown) [Example 49] showed an inhibition at 10 µM [1] of 35 to 70% and an IC50 greater than 3 µM.

With `CCOc1ccccc1CN1CCCN(C(=O)[C@@H](N)Cc2ccc(OCc3ccccc3)cc2)CC1` [Example 50] the inhibition at 10 µM [1] was 35 to 70% and the IC50 was greater than 3 µM.

`N[C@@H](Cc1ccc(OCc2ccccc2)cc1)C(=O)N1CCCN(Cc2ccc3ccccc3c2)CC1` [Example 51] was tested, and the inhibition at 10 µM [1] was 35 to 70% and the IC50 was greater than 3 µM.

In the case of `N[C@@H](Cc1ccc(OCc2ccccc2)cc1)C(=O)N1CCCN(Cc2ccc(Cl)cc2Cl)CC1` [Example 52], the inhibition at 10 µM [1] is reported as 35 to 70% and the IC50 is reported as greater than 3 µM.

Source: US6916812B2, “Alpha-aminoamide derivatives as melanocortin agonists” (Bristol-Myers Squibb Company, priority 2001, dated 2005)
